Converted amounts (≈) assume the structure as drawn.
Tests used:
Assay type in all cases: cell-based
[1] = tested on: K. pneumoniae SI-117 producing VIM-1; assay: Broth microdilution MIC in CAMHB; conditions: Klebsiella pneumoniae, read-out: Minimum Inhibitory Concentration, K. pneumoniae SI-117
In short: (§1)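 Lowest compound concentration with no visible growth after 16-20 h at 37 °C defines MIC. Plates of 2-fold serial dilutions in cation-adjusted Mueller Hinton broth received 2-8×10^5 CFU/mL of exponentially grown cells, per CLSI methods; panel spans reference, hyper-permeable and efflux-pump-deleted strains.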

E. coli ATCC 25922 = assay: Broth microdilution MIC in CAMHB; conditions: Escherichia coli, ATCC25922; E. coli ATCC 25922; MHB; read-out: Minimum Inhibitory Concentration, E. coli 25922
In short: as §1

E. coli D22 = assay: Broth microdilution MIC in CAMHB; conditions: Escherichia coli; E. coli D22 (hyper-permeable); MHB; read-out: Minimum Inhibitory Concentration, E. coli D22
In short: as §1

E. coli AG100A = assay: Broth microdilution MIC in CAMHB; conditions: Escherichia coli, read-out: Minimum Inhibitory Concentration, E. coli AG100A
In short: as §1

P. aeruginosa ATCC 35151 = assay: Broth microdilution MIC in CAMHB; conditions: Pseudomonas aeruginosa, ATCC35151; MHB; hyper-permeable strain; read-out: Minimum Inhibitory Concentration, P. aeruginosa ATCC 35151
In short: as §1

N. gonorrhoeae WHO G = assay: Liquid broth MIC in Fastidious broth; conditions: Neisseria gonorrhoeae; N. gonorrhoeae strain WHO G; Fastidious broth; read-out: Minimum Inhibitory Concentration, N. gonorrhoeae WHO G
In short: (§2)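 Colonies were swabbed from chocolate agar after 24 h growth and standardised by optical density at 600 nm. Compounds were serially diluted twofold in Fastidious broth, and bacteria added to give 5×10^5 CFU/mL. After about 24 h at 36 °C in 5% CO2, the lowest concentration allowing under 10% growth was taken as MIC.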

N. gonorrhoeae WHO Z = assay: Liquid broth MIC in Fastidious broth; conditions: Neisseria gonorrhoeae, read-out: Minimum Inhibitory Concentration, N. gonorrhoeae WHO Z
In short: (§3)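 Broth microdilution against gonococcal strains expressing mosaic PBP2, starting inoculum 5×10^5 CFU/mL in Fastidious broth. Incubation runs ~24 h at 36 °C under 5% CO2, with MIC scored visually at <10% of full growth.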

N. gonorrhoeae H041 = assay: Liquid broth MIC in Fastidious broth; conditions: Neisseria gonorrhoeae, H041, read-out: Minimum Inhibitory Concentration, N. gonorrhoeae H041
In short: as §3

N. gonorrhoeae WHO Q = assay: Liquid broth MIC in Fastidious broth; conditions: Neisseria gonorrhoeae, read-out: Minimum Inhibitory Concentration, N. gonorrhoeae WHO Q
In short: as §3

N. gonorrhoeae FA1090 = assay: Liquid broth MIC in Fastidious broth; conditions: Neisseria gonorrhoeae; N. gonorrhoeae strain FA1090; Fastidious broth; read-out: Minimum Inhibitory Concentration, N. gonorrhoeae FA1090
In short: as §2

[2] = tested on: N. gonorrhoeae ATCC 49226; assay: Liquid broth MIC in Fastidious broth; conditions: Neisseria gonorrhoeae, ATCC49226; N. gonorrhoeae strain ATCC 49226; Fastidious broth; read-out: Minimum Inhibitory Concentration, N. gonorrhoeae ATCC 49226
In short: as §2

N. gonorrhoeae WHO L = assay: Liquid broth MIC in Fastidious broth; conditions: Neisseria gonorrhoeae; N. gonorrhoeae strain WHO L; Fastidious broth; read-out: Minimum Inhibitory Concentration, N. gonorrhoeae WHO L
In short: as §2

N. gonorrhoeae WHO K = assay: Liquid broth MIC in Fastidious broth; conditions: Neisseria gonorrhoeae, read-out: Minimum Inhibitory Concentration, N. gonorrhoeae WHO K
In short: as §3

Row | SMILES | MIC [1] | MIC (E. coli ATCC 25922) | MIC (E. coli D22) | MIC (E. coli AG100A) | MIC (P. aeruginosa ATCC 35151) | MIC (N. gonorrhoeae WHO G) | MIC (N. gonorrhoeae WHO Z) | MIC (N. gonorrhoeae H041) | MIC (N. gonorrhoeae WHO Q) | MIC (N. gonorrhoeae FA1090) | MIC [2] | MIC (N. gonorrhoeae WHO L) | MIC (N. gonorrhoeae WHO K)
1 | CCN1CCN(C(=O)NC(C(=O)N[C@H]2Cc3cccc(C(=O)O)c3OB2O)c2cc(F)c(O)c(F)c2F)C(=O)C1=O (stereo partly drawn) [Example 172, (3R)-3-(2-(4-ethyl-2,3-dioxopiperazine-1-carboxamido)-2-(2,3,5-trifluoro-4-hydroxyphenyl)acetamido)-2-hydroxy-3,4-dihydro-2H-benzo[e][1,2]oxaborinine-8-carboxylic acid] | > 128 µg/mL | 32 to 64 µg/mL (≈ 55.3 to 111 µM) | 2 to 4 µg/mL (≈ 3.46 to 6.92 µM) | 2 to 4 µg/mL (≈ 3.46 to 6.92 µM) | < 0.25 µg/mL | 0.25 to 0.5 µg/mL (≈ 0.432 to 0.865 µM) | 1 to 2 µg/mL (≈ 1.73 to 3.46 µM) | 16 to 32 µg/mL (≈ 27.7 to 55.3 µM) | 4 to 8 µg/mL (≈ 6.92 to 13.8 µM) | < 0.125 µg/mL | 1 to 2 µg/mL (≈ 1.73 to 3.46 µM) | 4 to 8 µg/mL (≈ 6.92 to 13.8 µM) | 4 to 8 µg/mL (≈ 6.92 to 13.8 µM)
2 | CCN1CCN(C(=O)NC(C(=O)N[C@H]2Cc3ccc(F)c(C(=O)O)c3OB2O)c2c(F)cc(O)cc2F)C(=O)C1=O (stereo partly drawn) [Example 130, (3R)-3-(2-(2,6-difluoro-4-hydroxyphenyl)-2-(4-ethyl-2,3-dioxopiperazine-1-carboxamido)acetamido)-7-fluoro-2-hydroxy-3,4-dihydro-2H-benzo[e][1,2]oxaborinine-8-carboxylic acid] | 32 to 64 µg/mL (≈ 55.3 to 111 µM) | 32 to 64 µg/mL (≈ 55.3 to 111 µM) | 2 to 4 µg/mL (≈ 3.46 to 6.92 µM) | 8 to 16 µg/mL (≈ 13.8 to 27.7 µM) | < 0.25 µg/mL | 4 to 8 µg/mL (≈ 6.92 to 13.8 µM) | 4 to 8 µg/mL (≈ 6.92 to 13.8 µM) | 16 to 32 µg/mL (≈ 27.7 to 55.3 µM) | 16 to 32 µg/mL (≈ 27.7 to 55.3 µM) | 1 to 2 µg/mL (≈ 1.73 to 3.46 µM) | 4 to 8 µg/mL (≈ 6.92 to 13.8 µM) | > 64 µg/mL | 16 to 32 µg/mL (≈ 27.7 to 55.3 µM)
3 | NCCN1CCN(C(=O)N[C@@H](C(=O)N[C@H]2Cc3ccc(F)c(C(=O)O)c3OB2O)c2c(F)cc(O)cc2F)C(=O)C1=O (single isomer, unassigned) [Example 127] | 32 to 64 µg/mL (≈ 53.9 to 108 µM) | 8 to 16 µg/mL (≈ 13.5 to 27 µM) | 2 to 4 µg/mL (≈ 3.37 to 6.74 µM) | 8 to 16 µg/mL (≈ 13.5 to 27 µM) | 0.5 to 1 µg/mL (≈ 0.843 to 1.69 µM) | 16 to 32 µg/mL (≈ 27 to 53.9 µM) | > 64 µg/mL | > 64 µg/mL | > 64 µg/mL | 4 to 8 µg/mL (≈ 6.74 to 13.5 µM) | 16 to 32 µg/mL (≈ 27 to 53.9 µM) | > 64 µg/mL | > 64 µg/mL
4 | CCN1CCN(C(=O)N[C@H](C(=O)N[C@H]2Cc3cccc(C(=O)O)c3OB2O)c2ccc(C(=O)O)c(F)c2)C(=O)C1=O (single isomer, unassigned) [Example 147] | > 128 µg/mL | 32 to 64 µg/mL (≈ 56.1 to 112 µM) | 2 to 4 µg/mL (≈ 3.51 to 7.01 µM) | 2 to 4 µg/mL (≈ 3.51 to 7.01 µM) | < 0.25 µg/mL | 0.25 to 0.5 µg/mL (≈ 0.438 to 0.877 µM) | 0.25 to 0.5 µg/mL (≈ 0.438 to 0.877 µM) | 1 to 2 µg/mL (≈ 1.75 to 3.51 µM) | 0.25 to 0.5 µg/mL (≈ 0.438 to 0.877 µM) | < 0.125 µg/mL | 1 to 2 µg/mL (≈ 1.75 to 3.51 µM) | 4 to 8 µg/mL (≈ 7.01 to 14 µM) | 0.25 to 0.5 µg/mL (≈ 0.438 to 0.877 µM)
5 | NC1(CN2CCN(C(=O)N[C@@H](C(=O)N[C@H]3Cc4cccc(C(=O)O)c4OB3O)c3c(F)cc(O)cc3F)C(=O)C2=O)CC1 (single isomer, unassigned) [Example 121] | 32 to 64 µg/mL (≈ 53.2 to 106 µM) | 8 to 16 µg/mL (≈ 13.3 to 26.6 µM) | 2 to 4 µg/mL (≈ 3.33 to 6.65 µM) | 2 to 4 µg/mL (≈ 3.33 to 6.65 µM) | 0.5 to 1 µg/mL (≈ 0.831 to 1.66 µM) | 16 to 32 µg/mL (≈ 26.6 to 53.2 µM) | > 64 µg/mL | > 64 µg/mL | > 64 µg/mL | 1 to 2 µg/mL (≈ 1.66 to 3.33 µM) | 16 to 32 µg/mL (≈ 26.6 to 53.2 µM) | > 64 µg/mL | > 64 µg/mL
6 | CCN1CCN(C(=O)NC(C(=O)N[C@H]2Cc3cccc(C(=O)O)c3OB2O)c2cccc(CN)c2)C(=O)C1=O (stereo partly drawn) [Example 108, (3R)-3-(2-(3-(aminomethyl)phenyl)-2-(4-ethyl-2,3-dioxopiperazine-1-carboxamido)acetamido)-2-hydroxy-3,4-dihydro-2H-benzo[e][1,2]oxaborinine-8-carboxylic acid] | 32 to 64 µg/mL (≈ 59.6 to 119 µM) | 8 to 16 µg/mL (≈ 14.9 to 29.8 µM) | 8 to 16 µg/mL (≈ 14.9 to 29.8 µM) | 2 to 4 µg/mL (≈ 3.72 to 7.44 µM) | 8 to 16 µg/mL (≈ 14.9 to 29.8 µM) | 4 to 8 µg/mL (≈ 7.44 to 14.9 µM) | > 64 µg/mL | > 64 µg/mL | > 64 µg/mL | 1 to 2 µg/mL (≈ 1.86 to 3.72 µM) | 16 to 32 µg/mL (≈ 29.8 to 59.6 µM) | > 64 µg/mL | > 64 µg/mL
